Experimental data as given in patent US20070099855A1 (priority 2003, published 2007).

How the values were obtained:
in vitro = settings: African green monkey
[1] = system: SARS-associated coronavirus; type: cell-based; settings: added to the culture medium; results not shown
CRFK cells = settings: cat
[2] = system: FipV (Feline infectious peritonitis Virus); test: microbe, parasite or virus in culture; type: cell-based
[3] = system: TGEV (Transmissible gastroenteritis Virus); test: microbe, parasite or virus in culture; type: cell-based
TGEV = type: cell-based, Transmissible gastroenteritis Virus; settings: 500 μM
FipV = type: cell-based, Feline infectious peritonitis Virus; settings: 500 μM
nitrous oxide synthase = type: cell-based
[4] = system: SARS-associated coronavirus; type: cell-based; settings: Vero cells, 72 hours after infection
Vero cells = settings: African green monkey

## O=c1cnn([C@@H]2O[C@H](CO)[C@@H](O)[C@H]2O)c(=O)[nH]1 [Compound 6-azauridine, 6-azauridine]
In vitro
  CC50: 104 mg/L

## COC(=O)[C@@]1(C)CC[C@]2(C)CC[C@]3(C)C(=CC(=O)C4[C@@]5(C)CCC(OC6OC(C(=O)NN)C(O)C(O)C6OC6OC(C(=O)NN)C(O)C(O)C6O)C(C)(C)C5CC[C@]43C)C2C1 (stereo partly drawn) [Compound 7]
In vitro
  CC50: 66 µM

## COC(=O)[C@@]1(C)CC[C@]2(C)CC[C@]3(C)C(=CC(=O)C4[C@@]5(C)CCC(OC6OC(CO)C(O)C(O)C6OC6OC(CO)C(O)C(O)C6O)C(C)(C)C5CC[C@]43C)C2C1 (stereo partly drawn) [Compound 8]
In vitro
  CC50: 44 µM

## NCCN(CCN)/[N+]([O-])=N/O [DETANONOate]
[1]
  SARS-associated coronavirus replication: replication was inhibited

## CC1(C)C(OC2OC(C(=O)O)C(O)C(O)C2OC2OC(C(=O)O)C(O)C(O)C2O)CC[C@@]2(C)C1CC[C@]1(C)C2C(=O)C=C2C3C[C@@](C)(C(=O)O)CC[C@]3(C)CC[C@]21C.N (stereo partly drawn) [Glycyrrhizin Monoammonium Salt]
In vitro
  CC50: 625 µM
CRFK cells
  Tox. CRFK cells: >1 mM
[2]
  inhibition of CPE, FipV: Partial inhibition
[2]; Alphacoronavirus 1, CRFK, 48 h, read-out: EC50, FipV
  EC50: < 500 µM
[3]
  inhibition of CPE, TGEV: Partial inhibition
[3]; Alphacoronavirus 1, CRFK, 48 h, read-out: EC50, TGEV
  EC50: < 500 µM

## CC1(C)C(OC2OC(C(=O)O)C(O)C(O)C2OC2OC(C(=O)O)C(O)C(O)C2O)CC[C@]2(C)[C@H]3C(=O)C=C4[C@@H]5C[C@@](C)(C(=O)O)CC[C@]5(C)CC[C@@]4(C)[C@]3(C)CC[C@@H]12 (stereo partly drawn) [Glycyrrhizin, (3-beta,20-beta)-20-Carboxy-11-oxo-30-norolean-12-en-3-yl 2-O-beta-D-glucopyranuronosyl-alpha-D-glucopyranosiduronic acid]
In vitro
  CC50: > 20000 mg/L
  cytotoxicity: 20 to 30%
TGEV
  virus replication, TGEV: significantly reduced
FipV
  virus replication, FipV: significantly reduced
Nitrous oxide synthase
  induction of nitrous oxide synthase: induced nitrous oxide synthase
[4]; 1000 mg/L
  expression of viral antigens: much lower
[4]; 4000 mg/L
  replication of the virus: completely blocked replication of the virus
Vero cells
  CC50: >20,000 mg/L

## COc1c(C)c2c(c(O)c1C/C=C(\C)CCC(=O)O)C(=O)OC2 [Mycophenolic acid]
In vitro
  CC50: > 50 mg/L

## NC(=O)c1[nH]nc([C@@H]2O[C@H](CO)[C@@H](O)[C@H]2O)c1O [Pyrazofurin]
In vitro
  CC50: 52 mg/L

## NC(=O)c1ncn([C@@H]2O[C@H](CO)[C@@H](O)[C@H]2O)n1 [Ribavirin]
In vitro
  CC50: > 1000 mg/L
